From patent US20090078651A1, “Mung Water Treatment Method” (ReNew Systems, Inc., priority 2007, published 2009)

How the values were obtained:
[1] = test system: bacteria colonies from mung water; assay: Most probable number plates of treated mung water samples (bacteria colony counts); format: cell-based; conditions: for colonies counted, Most Probable Number Plates: T = 24
Method: On 27 Sep. 2006 an experimental was conducted to compare the effects of treating mung water with DBNPA only to the effects of treating mung water with both DBNPA and Odor-Out®. The experiment was set-up in 250 ml baffled shake flasks with dispo plugs. The Odor Out® solutions used in this experiment were “aged”, having been prepared on 12 Sep. 2006 in tap water. The DBNPA solution was made up just prior to making additions to the flasks and was made using distilled water. After mung water samples and DBNPA and Odor Out® treatment additives were added, the flasks were placed in an incubation shaker set at 30 degrees C. and shaken at 100 rpm. The experiment was started at 2:30 p.m. on 27 Sep. 2006. The flasks were shaken for 2½ hours at which point the shaker was turned off and the flasks were allowed to incubate in a stationary position overnight. The next day, on 28 Sep. 2006 from 11 a.m.-2 p.m., serial dilutions were made up and most probable number plates were prepared. The plates were incubated overnight at 30 degrees C. On 29 Sep.

[2] = designed property; cited from earlier work

**Q.** Which results are given for `N#CC(Br)(Br)C(N)=O` [DBNPA, 2.2-dibromo-3-nitrilopropionamide]?
**A.** colonies counted, Most Probable Number Plates ([1]; Straight, DBNPA 0.05% 10 μl in 50 ml mung water, no Odor Out (1a)): TNC (the colonies on the plates were too numerous to count (>300)); colonies counted, Most Probable Number Plates ([1]; dilution 10^−1, DBNPA 0.05% 10 μl in 50 ml mung water, no Odor Out (1a)): TNC (the colonies on the plates were too numerous to count (>300)); colonies counted, Most Probable Number Plates ([1]; dilution 10^−2, DBNPA only (1a)): 5; colonies counted, Most Probable Number Plates ([1]; dilution 10^−3, DBNPA only (1a)): 1; colonies counted, Most Probable Number Plates ([1]; dilution 10^−4, DBNPA only (1a)): 0; colonies counted, Most Probable Number Plates ([1]; dilution 10^−5, DBNPA only (1a)): 0; colonies counted, Most Probable Number Plates ([1]; dilution 10^−6, DBNPA only (1a)): 0; colonies counted, Most Probable Number Plates ([1]; dilution 10^−7, DBNPA only (1a)): 0; bacteria colony counts, change ([1]; mung water samples treated only with DBNPA): moderate reductions; time to biodegrade after introduction into a recirculating water system [2]: ≤ 48 h
